From US9346820B2, “HIV-1 protease inhibitors having gem-di-fluoro bicyclic P2-ligands” (priority 2013, dated 2016)
Read-outs that look alike come from different tables or passages of the source.

Assays:
[1] = system: HIV-1MDR/C; assay: microbe, parasite or virus in culture; type: cell-based; conditions: for EC50: Human immunodeficiency virus 1, read-out: EC50 HIV-1MDR/C (X4)
Description: (§1) All primary HIV-1 strains were passaged once or twice in 3-day-old phytohemagglutinin activated peripheral blood mononuclear cells (PHA-PBM), and the culture supernatants were stored at −80° C. until use.
(§2) The susceptibility of HIV-1LAI to various drugs was determined as previously described with minor modifications. Briefly, MT-2 cells (10^4/ml) were exposed to 100 50% tissue culture infectious doses (TCID50) of HIV-1LAI in the presence or absence of various concentrations of drugs in 96-well microculture plates and were incubated at 37° C. for 7 days. After 100 μl of the medium was removed from each well, 3-(4,5-dimetylthiazol-2-yl)-2,5-diphenyltetrazolium bromide (MTT) solution (10 μl, 7.5 mg/ml in phosphate-buffered saline) was added to each well in the plate, followed by incubation at 37° C. for 2 h. […] All assays were performed in duplicate or triplicate. […] To determine the sensitivity of primary HIV-1 isolates to drugs, phytohemagglutinin-stimulated peripheral blood mononuclear cells (PHA-PBMC) (10^6/ml) were exposed to 50 TCID50 of each primary HIV-1 isolate and cultured in the presence or absence of various concentrations of drugs in 10-fold serial dilutions in 96-well microculture plates. In determining the drug susceptibility of certain laboratory HIV-1 strains, MT-4 cells were employed as target cells as previously described with minor modifications. In brief, MT-4 cells (10^5/ml) were exposed to 100 TCID50 of drug-resistant HIV-1 strains in the presence or absence of various concentrations of drugs and were incubated at 37° C. On day 7 of culture, the supernatants were harvested and the amounts of p24 Gag protein were determined by using a fully automated chemiluminescent enzyme immunoassay system (Lumipulse F: Fujirebio Inc., Tokyo). […] All assays were performed in duplicate or triplicate. PHA-PBMs were derived from a single donor in each independent experiment. Thus, for obtaining the data, three different donors were recruited.

[2] = system: HIV-1MDR/MM; assay: microbe, parasite or virus in culture; type: cell-based; conditions: for EC50: Human immunodeficiency virus 1, read-out: EC50 HIV-1MDR/MM (R5)
Description: as §1, §2

[3] = system: HIV-1MDR/G; assay: microbe, parasite or virus in culture; type: cell-based; conditions: for EC50: Human immunodeficiency virus 1, read-out: EC50 HIV-1MDR/G (X4)
Description: as §1, §2

[4] = system: HIV-1MDR/B; assay: microbe, parasite or virus in culture; type: cell-based
Description: as §1, §2

[5] = system: HIV-1MDR/TM; assay: microbe, parasite or virus in culture; type: cell-based; conditions: for EC50: Human immunodeficiency virus 1, read-out: EC50 HIV-1MDR/TM (X4)
Description: as §1, §2

[6] = system: HIV-1MDR/JSL; assay: microbe, parasite or virus in culture; type: cell-based; conditions: for EC50: Human immunodeficiency virus 1, read-out: EC50 HIV-1MDR/JSL (R5)
Description: as §1, §2

[7] = system: HIV-1ATV^R5μM; assay: microbe, parasite or virus in culture; type: cell-based; conditions: for EC50: Human immunodeficiency virus 1, MT4, read-out: EC50 HIV-1ATV^R5μM
Description: as §2

[8] = system: HIV-1LPV^R5μM; assay: microbe, parasite or virus in culture; type: cell-based; conditions: for EC50: Human immunodeficiency virus 1, MT4, read-out: EC50 HIV-1LPV^R5μM
Description: as §2

[9] = system: HIV-1APV^R5μM; assay: microbe, parasite or virus in culture; type: cell-based; conditions: Human immunodeficiency virus 1, MT4, read-out: EC50 HIV-1APV^R5μM
Description: as §2

[10] = system: HIV-1SQV^R5μM; assay: microbe, parasite or virus in culture; type: cell-based; conditions: for EC50: Human immunodeficiency virus 1, MT4, read-out: EC50 HIV-1SQV^R5μM
Description: as §2

[11] = in vitro; conditions: rat and monkey
Description: The BBB Kit™ was kept at −80° C. until thawing on day 0 of the experiments. Nutritional medium was added to both brain and blood sides of the wells. This solution consists of DMEM F-12 medium with FCS 10% v/v, heparin 100 μg/ml, basic fibroblast growth factor (bFGF) 1.5 ng/ml, insulin 5 μg/ml, transferrin 5 μg/ml, sodium selenite 5 ng/ml, hydrocortisone 500 nM and gentamycin 50 μg/ml. Fresh medium was added 3 hours after thawing following the manufacturer's instructions, and 24 hours later. The plates were incubated at 37° C. until day 4 of the experiment when the condition of astrocytes was checked under a light microscope. Following this, the integrity of the collagen-coated membrane was verified by the measurement of the transendothelial electrical resistance (TEER) using an ohmmeter provided by the manufacturer. […] Detailed information regarding the components of the BBB Kit as well as its mechanisms can be seen by accessing the manufacturer's website http://www.pharmacocell.co.jp/en/bbb/index_e.html.
Standard curves were generated for each compound on a light spectrophotometer as previously described. 100 μM of each compound was added to the luminal (blood side) of the wells, incubated at 37° C. for 30 minutes and then, the amount of drug that crossed the in vitro BBB was collected and measured under a light spectrophotometer at 230 nanometer absorbances.
Papp was calculated using the following mathematical formula: […]
This model (BBB Kit™) is thought to represent an in vitro BBB model for drug transport assays, permitting an adequate cross-talk of the cell lines involved and provide a way to test an apparent passage of small molecules across the BBB as previously described by Nakagawa et al. (41). […] The concentrations of each compound that permeated into the abluminal interface (termed “brain side”) were determined using a spectrophotometer, 30 min after the addition of each drug to the wells.
The mathematical formula used for the calculation of Papp is described in Materials and Methods.

[12] = system: HIV-1ERS104pre; assay: p24 Gag production inhibition in PHA-PBMs, wild-type clinical isolate; type: cell-based; conditions: Human immunodeficiency virus 1, read-out: EC50 HIV-1ERS104pre (X4)
Description: as §1, §2

[13] = system: HIV-1LAI; assay: Drug susceptibility MTT assay, MT-2 cells exposed to HIV-1LAI; type: cell-based
Description: as §2

[14] = Human immunodeficiency virus 1, MT2, read-out: EC50 HIV-1LAI, MT-2 cells, 100 TCID50, MTT assay
[15] = read-out: EC50 HIV-1LAI, MT-2 cells, 100 TCID50, MTT assay

SMILES	EC50 [1]	EC50 [2]	EC50 [3]	EC50 [5]	EC50 [6]	EC50 [7]	EC50 [8]	EC50 [9]	EC50 [10]	EC50 [12]	EC50 [13, 14]	EC50 [13, 15]	also measured
COC(=O)N[C@H](C(=O)N[C@@H](Cc1ccccc1)[C@@H](O)CN(Cc1ccc(-c2ccccn2)cc1)NC(=O)[C@@H](NC(=O)OC)C(C)(C)C)C(C)(C)C [ATV, Atazanavir]	0.43 µM	0.081 µM	0.042 µM	0.056 µM	> 1 µM	> 1 µM	0.033 µM	0.66 ± 0.02 µM	> 1 µM	0.0021 µM	0.005 to 0.03 µM	0.005 ± 0.001 µM	fold change of EC50 HIV-1MDR/C vs HIV-1ERS104pre ([1]; number in parentheses): 204 fold; fold change of EC50 HIV-1MDR/MM vs HIV-1ERS104pre ([2]; number in parentheses): 38 fold; fold change of EC50 HIV-1MDR/G vs HIV-1ERS104pre ([3]; number in parentheses): 19 fold; EC50 ([4]; Human immunodeficiency virus 1, read-out: EC50 HIV-1MDR/B (X4)): 0.45 µM; fold change of EC50 HIV-1MDR/B vs HIV-1ERS104pre ([4]; number in parentheses): 214 fold; fold change of EC50 HIV-1MDR/TM vs HIV-1ERS104pre ([5]; number in parentheses): 24 fold; fold change of EC50 HIV-1MDR/JSL vs HIV-1ERS104pre ([6]; number in parentheses): > 476 fold; fold change of EC50 HIV-1ATV^R5μM vs HIV-1NL4-3 ([7]; number in parentheses): > 250 fold; fold change of EC50 HIV-1LPV^R5μM vs HIV-1NL4-3 ([8]; number in parentheses): 8 fold; fold change of EC50 HIV-1SQV^R5μM vs HIV-1NL4-3 ([10]; number in parentheses): > 250 fold; Papp at 30 min, 100 μM ([11]; Papp): 15.4 ×10⁻⁶ cm/s; Selectivity Index ([13]; ratio of CC50 to EC50 against HIV-1LAI): 5,720
CC(C)CN(C[C@@H](O)[C@H](Cc1ccccc1)NC(=O)O[C@H]1CO[C@H]2OCC[C@H]21)S(=O)(=O)c1ccc(N)cc1 [DRV, darunavir]	0.005 µM	0.01 µM	0.014 µM	0.03 µM	0.025 µM	0.05 µM	0.032 µM	0.51 µM	0.04 µM	0.004 µM	0.005 to 0.03 µM	0.005 ± 0.001 µM	Papp at 30 min, 100 μM [11]: 9.9 ×10⁻⁶ cm/s
